45 compounds from patent US10150728B2, “Alkylene derivatives” (Shionogi & Co., Ltd., priority 2013, dated 2018) can be followed below.

The target in this assay is recombinant human ACC2 (Homo sapiens (Human), UniProt O00763). Kind of assay: Measurement of inhibitory activity on human ACC2 (MALDI-TOF MS, acetyl CoA to malonyl CoA conversion). It counts as biochemical. The following applies: Tables 155-159. The procedure, abridged: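 His-tagged human ACC2 (residues 27–2458) from baculovirus-infected Sf-9 cells was preincubated 1 h in pH 7.4 HEPES-KOH buffer with MgCl2, 6-10 mM potassium citrate, glutathione and BSA. Substrate solution held 1 mM ATP, 0.8 mM acetyl CoA and 25-50 mM bicarbonate. After 1–3 h at room temperature, malonyl CoA/(malonyl+acetyl CoA) was read by negative-mode MALDI-TOF MS; citrate, bicarbonate and time varied by enzyme lot.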
Chain of recombinant human ACC2 (O00763 27-2458): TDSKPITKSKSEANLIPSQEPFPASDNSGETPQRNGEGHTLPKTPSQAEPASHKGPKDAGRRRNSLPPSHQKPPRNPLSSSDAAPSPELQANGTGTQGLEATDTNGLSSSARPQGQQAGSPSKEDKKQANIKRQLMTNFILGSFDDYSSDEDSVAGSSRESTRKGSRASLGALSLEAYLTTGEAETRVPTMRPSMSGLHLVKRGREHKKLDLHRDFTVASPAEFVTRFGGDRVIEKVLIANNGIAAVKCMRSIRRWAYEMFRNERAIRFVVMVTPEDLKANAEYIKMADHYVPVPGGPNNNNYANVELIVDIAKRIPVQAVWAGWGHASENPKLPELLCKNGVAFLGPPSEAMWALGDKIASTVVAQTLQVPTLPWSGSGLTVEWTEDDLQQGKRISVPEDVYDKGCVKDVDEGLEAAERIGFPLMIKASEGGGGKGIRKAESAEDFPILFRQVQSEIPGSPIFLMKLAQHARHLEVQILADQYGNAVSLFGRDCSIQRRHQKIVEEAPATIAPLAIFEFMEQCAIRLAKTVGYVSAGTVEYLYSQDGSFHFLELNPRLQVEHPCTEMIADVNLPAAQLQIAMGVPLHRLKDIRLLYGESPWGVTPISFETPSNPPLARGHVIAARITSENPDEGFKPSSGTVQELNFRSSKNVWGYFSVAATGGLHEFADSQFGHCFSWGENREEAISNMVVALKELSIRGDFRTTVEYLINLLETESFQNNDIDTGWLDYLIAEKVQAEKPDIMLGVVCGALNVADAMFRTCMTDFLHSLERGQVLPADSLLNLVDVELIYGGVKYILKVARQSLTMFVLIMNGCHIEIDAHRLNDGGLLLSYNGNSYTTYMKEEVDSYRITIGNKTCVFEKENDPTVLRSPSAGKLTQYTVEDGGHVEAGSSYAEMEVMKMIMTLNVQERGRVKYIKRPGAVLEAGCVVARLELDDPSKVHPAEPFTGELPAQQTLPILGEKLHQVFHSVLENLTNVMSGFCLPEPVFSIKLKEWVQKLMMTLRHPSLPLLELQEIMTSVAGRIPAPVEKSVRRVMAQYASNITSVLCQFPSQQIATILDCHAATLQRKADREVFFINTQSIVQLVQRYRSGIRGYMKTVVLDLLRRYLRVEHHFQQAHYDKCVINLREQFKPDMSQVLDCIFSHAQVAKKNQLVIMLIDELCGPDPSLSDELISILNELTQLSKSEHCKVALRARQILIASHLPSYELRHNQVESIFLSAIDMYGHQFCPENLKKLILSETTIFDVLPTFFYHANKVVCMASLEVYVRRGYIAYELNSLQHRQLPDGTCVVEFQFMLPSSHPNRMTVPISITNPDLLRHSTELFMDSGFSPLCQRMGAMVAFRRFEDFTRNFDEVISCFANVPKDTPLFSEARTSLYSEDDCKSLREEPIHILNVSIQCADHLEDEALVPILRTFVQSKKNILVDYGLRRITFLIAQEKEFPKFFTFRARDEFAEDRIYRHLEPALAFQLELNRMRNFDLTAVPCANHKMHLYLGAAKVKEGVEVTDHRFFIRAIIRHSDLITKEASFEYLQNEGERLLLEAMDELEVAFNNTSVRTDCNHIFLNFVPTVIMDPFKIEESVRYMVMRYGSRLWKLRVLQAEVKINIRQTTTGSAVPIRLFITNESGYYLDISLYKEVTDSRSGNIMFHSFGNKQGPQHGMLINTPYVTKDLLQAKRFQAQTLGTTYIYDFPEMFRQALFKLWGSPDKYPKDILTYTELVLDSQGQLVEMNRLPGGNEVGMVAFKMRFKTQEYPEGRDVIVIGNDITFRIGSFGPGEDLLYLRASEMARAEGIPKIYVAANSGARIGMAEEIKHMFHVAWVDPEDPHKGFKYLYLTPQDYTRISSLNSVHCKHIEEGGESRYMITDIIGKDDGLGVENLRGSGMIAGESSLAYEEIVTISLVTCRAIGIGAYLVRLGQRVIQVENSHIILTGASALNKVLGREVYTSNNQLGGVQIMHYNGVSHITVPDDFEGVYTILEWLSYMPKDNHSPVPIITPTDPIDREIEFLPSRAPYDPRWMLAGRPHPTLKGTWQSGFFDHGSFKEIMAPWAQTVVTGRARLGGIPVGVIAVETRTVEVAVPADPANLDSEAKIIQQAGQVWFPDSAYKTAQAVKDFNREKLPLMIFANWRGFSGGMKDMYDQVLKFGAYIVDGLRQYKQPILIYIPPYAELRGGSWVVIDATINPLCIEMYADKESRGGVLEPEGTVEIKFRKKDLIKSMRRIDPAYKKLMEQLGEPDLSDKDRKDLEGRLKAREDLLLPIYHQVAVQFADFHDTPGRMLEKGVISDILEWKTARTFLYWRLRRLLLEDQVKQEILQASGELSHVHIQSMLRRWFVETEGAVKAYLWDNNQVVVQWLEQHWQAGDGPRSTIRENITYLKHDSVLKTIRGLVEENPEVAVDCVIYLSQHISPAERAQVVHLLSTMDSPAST
Usually IC50 stands for the point on the concentration scale where inhibition reaches its midpoint. Regarding `CC(=O)N[C@@H](C)CO[C@H]1CC[C@H](Oc2nc3ccc(OCC(F)F)c(F)c3n2C)CC1` [Compound I-677], the IC50 came to 0.013 µM.
As for `CC(=O)N[C@@H](C)CO[C@H]1CC[C@H](Oc2nc3c(Cl)cc(Br)cc3n2C)CC1` [Compound I-678], the IC50 worked out at 0.123 µM.
As for `CC(=O)N[C@@H](C)CO[C@H]1CC[C@H](Oc2nc3c(C#N)cc(OCC(F)F)cc3n2C)CC1` [Compound I-679], the IC50 amounted to 0.625 µM.
Consider `CC(=O)N[C@@H](C)CO[C@H]1CC[C@H](Oc2nc3c(Br)cc(OCC(F)F)cc3n2C)CC1` [Compound I-680], for which the IC50 amounted to 0.14 µM.
Next, `C[C@@H](CC[C@H]1CC[C@H](Oc2nc3cnc(OC4CC4)c(Cl)c3n2C)CC1)NC(N)=O` [Compound I-682]: 0.005 µM; `C[C@@H](CO[C@H]1CC[C@H](Oc2nc3c(F)cc(OC4CC4)c(F)c3n2C)CC1)NC(=O)C(F)F` [Compound I-683]: 0.003 µM.
Take `CC(=O)N[C@@H](C)CC[C@@H]1CC[C@@H](Oc2nc3cnc(OCC(F)F)c(Cl)c3n2C)CO1` [Compound I-684]: the IC50 is 0.006 µM.
Next, `CCOc1c(F)cc2c(nc(O[C@H]3CC[C@H](OC[C@H](C)NC(C)=O)CC3)n2C)c1F` [Compound I-685]: 0.17 µM; `CCOc1nc(F)c2nc(O[C@H]3CC[C@H](OC[C@H](C)NC(C)=O)CC3)n(C)c2c1Cl` [Compound I-686]: 0.005 µM.
For the compound `C[C@@H](CO[C@H]1CC[C@H](Oc2nc3c(F)cc(OCC(F)F)c(Cl)c3n2C)CC1)NC(N)=O` [Compound I-687], the IC50 worked out at 0.014 µM.
`CC(=O)N[C@@H](C)CC[C@@H]1CC[C@@H](Oc2nc3c(F)cc(OCC(F)F)c(Cl)c3n2C)CO1` [Compound I-688]: the IC50 was found to be 0.004 µM.
With `CC(=O)N[C@@H](C)[C@H](C)O[C@H]1CC[C@H](Oc2nc3cnc(OC4CC4)c(F)c3n2C)CC1` [Compound I-689], the IC50 came out at 0.025 µM.
In the case of `CC(=O)N[C@@H](C)CO[C@H]1CC[C@H](Oc2nc3ccc(Br)c(F)c3n2C)CC1` [Compound I-691], the IC50 stood at 0.025 µM.
Consider `CCOc1cc(Cl)c2nc(O[C@H]3CC[C@H](OC[C@H](C)NC(C)=O)CC3)n(C)c2c1` [Compound I-692], for which the IC50 amounted to 0.034 µM.
Consider `CC(=O)N[C@@H](C)CO[C@H]1CC[C@H](Oc2nc3cnc(OC4CC(F)(F)C4)c(Cl)c3n2C)CC1` [Compound I-693], for which the IC50 turned out to be 0.008 µM.
Turning to `CCOc1ncc2nc(O[C@H]3CC[C@H](OC[C@H](C)NC(C)=O)CC3)n(C)c2c1F` [Compound I-694], the IC50 turned out to be 0.013 µM.
For the compound `CC(=O)N[C@@H](C)CO[C@H]1CC[C@H](Oc2nc3cnc(C4CC4)c(Cl)c3n2C)CC1` [Compound I-695], the IC50 was determined as 0.096 µM.
Consider `COC(=O)NC(=O)N[C@@H](C)CO[C@H]1CC[C@H](Oc2nc3cnc(OC4CC4)c(Cl)c3n2C)CC1` [Compound I-696], for which the IC50 turned out to be 0.497 µM.
For `C[C@@H](CO[C@H]1CC[C@H](Oc2nc3c(F)cc(OC4CC4)c(F)c3n2C)CC1)NC(N)=O` [Compound I-697], the IC50 worked out at 0.004 µM.
In the case of `CCOc1c(F)cc2nc(O[C@H]3CC[C@H](OC[C@H](C)NC(C)=O)CC3)n(C)c2c1F` [Compound I-698], the IC50 came to 0.003 µM.
Next, `CC(=O)N[C@@H](CF)CO[C@H]1CC[C@H](Oc2nc3c(F)cc(OCC(F)F)c(F)c3n2C)CC1` [Compound I-700]: 0.009 µM; `CNC(=O)N[C@@H](C)CO[C@H]1CC[C@H](Oc2nc3c(F)cc(OCC(F)F)c(F)c3n2C)CC1` [Compound I-701]: 0.023 µM.
As to `CC(=O)N[C@@H](C)CO[C@H]1OC[C@@H](Oc2nc3c(F)cc(OCC(F)F)c(F)c3n2C)C[C@@H]1C` [Compound I-702], the IC50 is 0.015 µM.
`CC(=O)N[C@@H](C)CO[C@H]1CC[C@H](Oc2nc3c(C#N)c(F)c(OCC(F)F)c(F)c3n2C)CO1` [Compound I-703]: the IC50 turned out to be 0.03 µM.
For `CC(=O)N[C@@H](C)CO[C@H]1CC[C@H](Oc2nc3cnc(OC4CC4)c(Cl)c3n2C)CC1` [Compound I-705], the IC50 was determined as 0.009 µM.
For `CC(=O)N[C@@H](C)CO[C@H]1CC[C@H](Oc2nc3c(Cl)cc(OCC(F)F)cc3n2C)CC1` [Compound I-706] the value was 0.048 µM; for `CC(=O)N[C@@H](C)CO[C@H]1CC[C@H](Oc2nc3c(F)cc(OCC(F)F)cc3n2C)CC1` [Compound I-707], 0.084 µM.
For `CC(=O)N[C@@H](C)CO[C@H]1CC[C@H](Oc2nc3cnc(OCC4CC4(F)F)c(Cl)c3n2C)CC1` (stereo partly drawn) [Compound I-708] the value was 0.005 µM.
As for `CC(=O)N[C@@H](C)CO[C@H]1CC[C@H](Oc2nc3c(C)cc(OCC(F)F)cc3n2C)CC1` [Compound I-709], the IC50 came out at 0.133 µM.
Next, `CC(=O)N[C@@H](C)CO[C@H]1CC[C@H](Oc2nc3c(Cl)nc(OC4CC4)c(Cl)c3n2C)CC1` [Compound I-710]: 0.006 µM.
Next, `CC(=O)N[C@@H](C)CO[C@H]1CC[C@H](Oc2nc3c(Cl)nc(OC4CC4)c(F)c3n2C)CC1` [Compound I-711]: 0.007 µM; `CC(=O)N[C@@H](C)CO[C@H]1CC[C@H](Oc2nc3c(F)cc(OC4CC(F)(F)C4)c(F)c3n2C)CC1` [Compound I-713]: 0.003 µM.
Regarding `C[C@@H](CO[C@H]1CC[C@H](Oc2nc3c(F)cc(OCC(F)F)c(F)c3n2C)CC1)NC(=O)CC#N` [Compound I-714], the IC50 turned out to be 0.044 µM.
For the compound `CC(=O)N[C@@H](C)[C@@H](C)O[C@H]1CC[C@H](Oc2nc3c(F)cc(OCC(F)F)c(F)c3n2C)CC1` [Compound I-716], the IC50 came to 0.17 µM.
`CC(=O)N[C@@H](C)CO[C@H]1CC[C@H](Oc2nc3c(F)c(C)c(OCC(F)F)c(F)c3n2C)CC1` [Compound I-717]: the IC50 is 0.015 µM.
As to `CCOc1ccc2nc(O[C@H]3CC[C@H](OC[C@H](C)NC(C)=O)CC3)n(C)c2c1C#N` [Compound I-720], the IC50 stood at 0.775 µM.
Take `CC(=O)N[C@@H](C)CO[C@H]1CC[C@H](Oc2nc3cnc(OCC(F)F)c(Cl)c3n2C)CC1` [Compound I-722]: the IC50 came to 0.009 µM.
As to `CCOc1cc(F)c2nc(O[C@H]3CC[C@H](OC[C@H](C)NC(C)=O)CC3)n(C)c2c1` [Compound I-723], the IC50 was found to be 0.041 µM.
For the compound `CC(=O)N[C@@H](C)CO[C@H]1CC[C@H](Oc2nc3cnc(OC[C@@H](C)F)c(Cl)c3n2C)CC1` [Compound I-724], the IC50 was 0.009 µM.
`CCOc1cc2c(nc(O[C@H]3CC[C@H](OC[C@H](C)NC(C)=O)CC3)n2C)c(Cl)c1Cl` [Compound I-725]: the IC50 was 0.101 µM.
In the case of `CC(=O)N[C@@H](C)CO[C@H]1CC[C@H](Oc2nc3c(C)nc(OC4CC4)c(Cl)c3n2C)CC1` [Compound I-726], the IC50 amounted to 0.009 µM.
For `CC(=O)N[C@@H](C)CO[C@H]1CC[C@H](Oc2nc3c(Cl)nc(C4CC4)c(Cl)c3n2C)CC1` [Compound I-727], the 50% inhibitory concentration (IC50) came out at 0.194 µM.
Turning to `CC(=O)N[C@@H](CF)CO[C@H]1CC[C@H](Oc2nc3cnc(OCC(F)F)c(Cl)c3n2C)CC1` [Compound I-728], the IC50 turned out to be 0.008 µM.
As for `C[C@@H](CO[C@H]1CC[C@H](Oc2nc3c(F)cc(OC4CC4)c(F)c3n2C)CC1)NC(=O)CC#N` [Compound I-729], the half-maximal inhibitory concentration (IC50) worked out at 0.004 µM.
Take `CC(=O)N[C@@H](CC#N)CO[C@H]1CC[C@H](Oc2nc3cnc(OCC(F)F)c(Cl)c3n2C)CC1` [Compound I-730]: the IC50 stood at 0.91 µM.
